In patent publication US10695288B2, “Reactive oxygen species (ROS)-responsive compositions and methods thereof” (VANDERBILT UNIVERSITY, priority 2014, dated 2020):

Experiments:
[1] = Superoxide scavenging in vitro (DHE fluorescence, xanthine/xanthine oxidase); type: biochemical; conditions: 55 μg/mL, one-way ANOVA p<0.0001
Procedure: In vitro superoxide scavenging activity of the tempo-PPS microspheres was evaluated using a dihydroethidium (DHE) fluorescence assay. DHE has been widely used to detect superoxide, which reacts with DHE to form a specific fluorescent product, 2-OH-ethidium (2OH-E). The effects of PPS and tempo-benzoate on superoxide were determined using a superoxide-generating, cell-free enzymatic system containing 0.046 U/ml xanthine oxidase and 0.2 mM xanthine. Xanthine was prepared in PBS−/− as a stock solution (1.21 mg/mL), and the appropriate volume of xanthine stock solution was added to the xanthine oxidase solution to reach the required final concentration. The xanthine/xanthine oxidase solution (100 μL) was added to wells in a black-walled, 96-well plate containing the following treatments: PBS, blank PPS microspheres (55 μg/mL), free tempo-benzoate (dissolved in acetonitrile then diluted to 5% acetonitrile, 55 μg/mL tempo-benzoate), and tempo-PPS microspheres (55 μg/mL microsphere concentration). Each well contained 10 μL of a treatment. […] After 10 minutes, 100 μL of the DHE solution was added to each well (10 uM final DHE concentration) and the fluorescence intensity was measured in a plate reader (Tecan Group Ltd., Mannedorf, Switzerland) over a time frame of 1 hour with an excitation of 405 nm and an emission of 570 nm. […]

type II collagen = assay: IVIS imaging of MabCII fluorescence after knee mechanical overload; type: in vivo, C57BL/6 mice; conditions: knee injection, loading cycles; vs PBS; p=0.0181 for microspheres
Procedure: (§1) For the study, C57BL/6 mice knees were injected with TPCA-1-PPS microspheres, TPCA-1 in its soluble form, or a PBS saline control. The mice were then given loading cycles to induce damage to the knee via the Poulet model of knee overload. At the completion of the loading cycles, the mice were given fluorescent indicators and evaluated using IVIS (in vivo imaging system) for type II collagen (and indicator of cartilage damage), and MMP activity (implicated in the progression of OA). […] This difference was not seen in the mice given the soluble form of TPCA-1 however.
(§2) TPCA-PPS microspheres were made as shown above. Chondrocytes were obtained from porcine cadavers prepared by the University of Tennessee Heath Science Center. MMPSense750 and XenoFluor 680 was obtained from PerkinElmer. Monoclonal antibodies to type II collagen were produced in our lab. C57BL/6 male mice were obtained from Jackson Laboratory (Maine, USA) and was acclimated in a housing facility before experimentation. A custom fit ElectroForce® 3200 (Bose Corp., Minnesota, USA) biomaterials test instrument was used for mechanical loading. The mechanical loading apparatus was custom made to fit the proximal tibia in the upper cup and dorsiflexed ankle in the bottom cup.

MMP-13 activity = assay: IVIS imaging of MMPSense fluorescence after knee mechanical overload; type: in vivo, C57BL/6 mice; conditions: knee injection, loading cycles; vs PBS; p=0.0184 for microspheres
Procedure: as §1, §2

[2] = Pilot studies with free curcumin in vitro; type: physicochemical
[3] = tested on: ROS levels in ischemic tissue; assay: Pilot studies with free curcumin in ischemic tissue; type: in vivo
[4] = Peroxynitrite scavenging in vitro (Pyrogallol Red bleaching assay); type: biochemical; conditions: 10 μM peroxynitrite; negative control
Procedure: The ability of PPS microspheres to scavenge peroxynitrite was tested in vitro using a Pyrogallol Red (PGR) bleaching assay. Treatment groups consisting of PBS, blank PPS microspheres (0.5-1.5 mg/mL), tempo-PPS microspheres (0.5 mg/mL), tempol (0.2 mg/mL, hydrophilic analog of tempo-benzoate), and ascorbic acid (negative control, pH adjusted to 7.4) were prepared in a 48-well plate with 500 μL volume per well. A PGR stock solution was prepared in PBS ([…]) and 10 μL was added to each well. Peroxynitrite stock solution was thawed on ice and diluted to a concentration of 1 mM in 0.3 M NaOH. After baseline absorbance of the dye was measured in a plate reader at 540 nm, 5 μL of peroxynitrite was added to each well (final concentration of 10 μM) and absorbance measurements were collected for one hour.

[5] = Hydrogen peroxide scavenging in vitro (Amplex Red, xanthine/xanthine oxidase); type: biochemical; conditions: 1 hour of incubation, one-way ANOVA p<0.001
Procedure: H2O2-scavenging activity of the PPS microspheres was verified in vitro using an Amplex Red Hydrogen Peroxide/Peroxidase Assay kit according to the manufacturer's instructions. Xanthine and xanthine oxidase were used at the same concentrations as described in the DHE assay to generate a reaction solution containing both superoxide and hydrogen peroxide. The reaction solution was added to wells in a black-walled, 96-well plate containing either PBS, blank PPS microspheres (final concentrations of 60 μg/mL and 7 μg/mL), or free tempo-benzoate (final concentrations of 0.5 mg/mL and 60 μg/mL). The Amplex Red working solution was freshly prepared as described in the kit instructions using the included Amplex Red, horseradish peroxidase, and 1× reaction buffer. The working solution was then added to the wells and fluorescence was measured in a plate reader at 1 hour with an excitation of 530 nm and an emission of 590 nm.

[6] = tested on: mouse hind limb ischemia model; assay: Speckle variance OCT of vascular morphology in adductor and gastrocnemius regions (Example 2); type: in vivo, FVB mice; conditions: gastrocnemius muscle, day 3, vs saline
Excerpt: Briefly, the femoral artery and vein of the right hind limb were ligated with 6-0 sutures proximal to the origins of the superficial epigastric artery and deep branch of the femoral artery, and proximal to the vessels the branch from the femoral artery near the knee. Major side branches were also ligated with 6-0 sutures before the ligated segment of the femoral artery and vein was excised. The incision was closed with interrupted 5-0 nylon sutures. In therapeutic experiments, treatments were injected intramuscularly in the ischemic limb following closure of the skin incision. […]
At 0, 3, 7, 14, 21, and 28 days post-surgery, the hind limb vasculature in the adductor and gastrocnemius muscle regions was imaged using a swept-source optical coherence tomography (OCT) system as described previously (26, 39). […] Speckle variance OCT volumes were acquired non-invasively through the skin in 4 mm×4 mm areas covering the two muscle regions, and average intensity projections in depth were used to visualize all vessels detected within the imaged volume. After image processing was performed to enhance contrast and enable vessel segmentation (39, 40), morphological parameters including vessel area density (total area filled by vessels/total area of imaged region) and vessel length fraction (total vessel length/total area of imaged region) were quantified.

MMP-13 = MMP-13 expression from PCR with TNF-α; type: cell-based, porcine; conditions: TNF-α alone
Excerpt: as §2

SOD: bovine SOD (20 U/ml) used as a negative control treatment
fluorescent signal from the DHE oxidation product compared to no treatment [1]: further inhibited

NC(=O)Nc1sc(-c2ccc(F)cc2)cc1C(N)=O [TPCA-1 in solution, TPCA-1]
MabCII fluorescence (exposed type II collagen) (type II collagen): not a significant reduction in fluorescence | MMPSense fluorescence (MMP-13 activity) (MMP-13 activity): not a significant reduction in fluorescence

COc1cc(/C=C/C(=O)CC(=O)/C=C/c2ccc(O)c(OC)c2)ccc1O [free curcumin, Curcumin]
behaviour of free curcumin in vitro [2]: formed crystals in vitro | ROS levels in ischemic tissue [3]: exacerbated ROS levels in ischemic tissue

O=C1O[C@H]([C@@H](O)CO)C(O)=C1O [Ascorbic acid, ascorbic acid]
relative bleaching [4]: 2%

CC1(C)CC(OC(=O)c2ccccc2)CC(C)(C)N1[O] [free tempo-benzoate, 4-hydroxy-TEMPO benzoate]
fluorescent signal from the DHE oxidation product compared to no treatment [1]: significantly reduce fluorescence | Amplex Red fluorescence [5]: significantly increases the fluorescent signal | vessel area density ([6]; p<0.01): saline-treated mice have significantly lower vessel area density | vessel length fraction ([6]; p<0.05): significantly lower in the saline group

TNF-α
increase in MMP-13 expression (MMP-13): ~20 fold
